Source: US11903912B2, “Composition for preventing and treating breast cancer including selenopsammaplin A as active ingredients” (Seoul National University R & DB Foundation, priority 2019, dated 2024)

Tests used:
[1] = system: A549 human lung cancer cells; test: SRB cytotoxicity test, A549; assay type: cell-based; conditions: SRB assay, cultured 3 days
Experimental: (§1) A cytotoxicity test was performed using synthesized selenopsammaplin A and derivatives thereof (Lee S K et al […] Chem Biol Interact 115:215-28).
(§2) The cytotoxicity test was performed on a total of five representative cancer cell lines. The cytotoxicity of each compound was measured using an SRB assay method (human lung cancer cells, A549; human colon cancer cells, HCT116; human breast cancer cells, MDA-MB231; human liver cancer cells, SK-HEP-1; human gastric cancer cells, SNU638).
(§3) Each cell line was sub-cultured once or twice using Roswell Park Memorial Institute (RPMI) medium 1640 (RPMI 1640) or Dulbecco's Modified Eagle's Medium (DMEM) containing 10% fetal bovine serum (FBS) inactivated by heat, 100 units/mL of penicillin, 100 μg/mL of streptomycin, and 250 ng/mL of amphotericin B at 37° C. for 1 week under a 5% CO2 condition. All cells were […] in liquid nitrogen, and then passaged three or more times to be used in the experiment. The effects of compounds on cell growth were measured using a sulforhodamine B (SRB) method (Lee et al (1998) Chemico-Biol Interact 115:215-228).
(§4) Specifically, each human cancer cell line used in the present invention was sub-cultured in an RPMI medium containing 10% FBS, 1% PSF, and the like, and 10 μl of a sample dissolved in 10% DMSO and 190 μl (4-5×10^4 cells/ml) of the cell suspension were added to each well of a 96-well plate and cultured for 3 days. 190 μl of the cell suspension was added to at least 16 wells and cultured for 30 minutes, and used as a zero-day control. The cultured cells were fixed with 10% trichloroacetic acid (TCA) and then stained with an SRB solution, and the staining solution was dissolved with 10 mM Tris-base, and then absorbance at 515 nm was measured. Using the case of culturing in 10% DMSO as a control, cell viability according to each test material treatment was measured using Equation 1 below. Etoposide was used as a positive control. % Viability=(OD(sample)−OD(0-day))/(OD(10% DMSO)−OD(0-day))×100 [Equation 1]
(§5) Assuming that a control not-treated with the sample was set at 100%, the values of sample-treated groups were expressed as percentage with respect to the control, and each test material treatment results were obtained as the mean±SEM of two or three tests. The IC50 value is the concentration of the test material for a 50% survival rate.

[2] = system: SK-HEP-1 human liver cancer cells; test: SRB cytotoxicity test, SK-HEP-1; assay type: cell-based; conditions: SRB assay, cultured 3 days
Experimental: as §1, §2, §3, §4, §5

[3] = system: HCT116 human colon cancer cells; test: SRB cytotoxicity test, HCT116; assay type: cell-based; conditions: SRB assay, cultured 3 days
Experimental: as §1, §2, §3, §4, §5

breast cancer metastasis = test: Breast cancer metastasis to organs in animal model, IVIS; assay type: in vivo, nude BALB/c mice; conditions: 5 mg/kg, 15 mg/kg
From the text: Organs such as the lungs, liver, spleen, and kidneys were extracted from the animal model of Example 8, and the degrees of cancer metastasis in the control and the administered groups were indirectly photographed using IVIS (PerkinElmer) and are illustrated in FIG. 9.

[4] = system: EMT markers in MDA-MB-231 cells; test: Protein expression of EMT markers, western blot; assay type: cell-based, human; conditions: MDA-MB-231, western blot, FIGS. 7E and 7F
Experimental: The triple-negative breast cancer cell line MDA-MB-231 was spread at a concentration of 2×10^6 cells/well on a DMEM medium containing 10% FBS in a 6-well plate, cultured at 37° C. for 24 hours under a 5% CO2 condition, and then washed twice with phosphate-buffered saline (PBS). Attached cells were recovered and washed twice with PBS, and then boiling 2× sample loading buffer (250 mM Tris-HCl (pH 6.8), 4% SDS, 10% glycerol, 0.006% bromophenol blue, 2% β-mercaptoethanol, 50 mM sodium fluoride, and 5 mM sodium orthovanadate) was added thereto to disrupt the cells and the cells were left at 100° C. for 10 minutes. After cooling, the cells were stored at […] and […] at 37° C. immediately before use in protein quantification and electrophoresis. 10 μg of proteins were electrophoresed at 100 V for 2 hours using a 12% SDS-polyacrylamide gel (#456-1036, Bio-Rad, Hercules, Calif.). The separated proteins were transferred to a PVDF membrane (ISEQ15150, Millipore, Bedford, Mass.) at 100 V for 1 hour, and a blocking buffer (5% non-fat dry milk in TBS containing 0.1% Tween-20 (TBST)) was injected thereinto to culture the proteins at room temperature for 1 hour. After washing three times with TBST for 5 minutes, the corresponding single antibody was diluted with 5% non-fat dry milk in TBST and allowed to react with the membrane at 4° C. for 18 hours. The membrane [ISEQ 1S150, Millipore, Bedford, Mass.] was washed three times with TBST for 10 minutes, and then horseradish peroxidase (HRP)-conjugated secondary antibodies were diluted with 2.5% non-fat dry milk in TBST at a ratio of 1:2,000 and allowed to react with the membrane at room temperature for 2 hours. After washing three times with TBST for 10 minutes, the reaction product was treated with a chemiluminescent reagent (LabFrontier, Suwon, Korea) to confirm the protein expression levels of E-cadherin, N-cadherin, vimentin, and beta-actin (Fuji Film Corp., Japan) using LAS-4000 (Fuji Film Corp., Japan), and the results thereof are illustrated in FIG. 7E. The proteins were quantified using ImageJ software, which are illustrated in FIG. 7F.

DOT1L = target: T1, DOT1L (Homo sapiens, UniProt Q8TEK3); test: Inhibition of DOT1L methylation (H3K79) by western blotting; assay type: cell-based; conditions: breast cancer cell line, FIG. 3
T1 construct: based on the finding that DOT1L was overexpressed in the breast cancer cell line; endogenous in cells
From the text: As confirmed in Example 1, based on the finding that DOT1L was overexpressed in the breast cancer cell line, the effects of the derivatives of the present invention on the methylation of the histone 3 lysine 79 (H3K79) residue, which is an in-vivo target of DOT1L, were examined by western blotting.

breast tumors = test: Breast tumor growth in xenograft mouse model; assay type: in vivo, nude BALB/c mice
Experimental: Breast cancer cells were injected into fat pads of nude BALB/c mice (8-week-old, female). When the tumor size reached about 200 mm^3, the compound was injected intraperitoneally three times a week. The tumor volume was calculated by the following equation: [volume […]=(L×W2)/2] and illustrated in FIG. 8A. 38 days after administration began, the mice were sacrificed and tumors were extracted, and the weights thereof were measured and illustrated in FIG. 8B. The body weights of the mice measured during the experiment are illustrated in FIG. 8C.

T1 sequence (Q8TEK3 whole entry): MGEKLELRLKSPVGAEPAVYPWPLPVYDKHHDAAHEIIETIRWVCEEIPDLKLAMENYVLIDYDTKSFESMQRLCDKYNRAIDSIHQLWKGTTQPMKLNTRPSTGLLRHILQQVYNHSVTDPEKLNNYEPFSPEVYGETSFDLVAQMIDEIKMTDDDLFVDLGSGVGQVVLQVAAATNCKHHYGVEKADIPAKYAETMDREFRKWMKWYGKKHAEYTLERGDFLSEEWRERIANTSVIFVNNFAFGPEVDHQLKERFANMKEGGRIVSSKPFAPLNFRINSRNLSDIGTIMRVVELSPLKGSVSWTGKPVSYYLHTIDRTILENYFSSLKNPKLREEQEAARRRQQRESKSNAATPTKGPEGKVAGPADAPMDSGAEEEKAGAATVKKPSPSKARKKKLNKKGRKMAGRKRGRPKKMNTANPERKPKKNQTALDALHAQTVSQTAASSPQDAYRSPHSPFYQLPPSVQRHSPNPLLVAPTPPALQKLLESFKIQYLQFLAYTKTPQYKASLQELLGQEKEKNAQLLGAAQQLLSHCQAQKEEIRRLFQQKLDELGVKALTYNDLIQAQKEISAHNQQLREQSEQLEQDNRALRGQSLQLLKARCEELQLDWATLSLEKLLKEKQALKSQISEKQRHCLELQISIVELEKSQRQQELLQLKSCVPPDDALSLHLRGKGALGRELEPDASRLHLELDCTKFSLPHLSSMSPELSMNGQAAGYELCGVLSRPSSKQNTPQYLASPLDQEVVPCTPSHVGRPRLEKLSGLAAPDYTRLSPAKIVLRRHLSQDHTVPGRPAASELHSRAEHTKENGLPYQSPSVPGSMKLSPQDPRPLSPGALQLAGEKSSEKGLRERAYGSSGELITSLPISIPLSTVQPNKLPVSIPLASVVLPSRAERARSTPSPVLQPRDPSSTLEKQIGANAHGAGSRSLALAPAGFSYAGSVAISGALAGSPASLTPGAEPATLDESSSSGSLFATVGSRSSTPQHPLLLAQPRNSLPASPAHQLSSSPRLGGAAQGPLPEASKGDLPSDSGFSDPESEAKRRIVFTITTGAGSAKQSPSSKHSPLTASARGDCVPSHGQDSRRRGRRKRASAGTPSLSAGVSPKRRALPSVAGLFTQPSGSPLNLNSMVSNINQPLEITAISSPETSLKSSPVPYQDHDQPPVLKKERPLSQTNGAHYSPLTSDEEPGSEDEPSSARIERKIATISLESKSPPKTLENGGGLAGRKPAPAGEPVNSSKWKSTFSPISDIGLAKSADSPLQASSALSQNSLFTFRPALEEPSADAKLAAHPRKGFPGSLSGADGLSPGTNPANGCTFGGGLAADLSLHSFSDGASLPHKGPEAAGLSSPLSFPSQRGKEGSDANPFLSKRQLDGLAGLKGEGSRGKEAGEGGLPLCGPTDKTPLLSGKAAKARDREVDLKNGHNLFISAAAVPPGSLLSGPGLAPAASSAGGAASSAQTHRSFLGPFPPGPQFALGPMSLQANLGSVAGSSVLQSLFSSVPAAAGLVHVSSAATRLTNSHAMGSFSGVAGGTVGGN

O=C(NCC[Se][Se]CCNC(=O)/C(Cc1ccccc1)=N/O)/C(Cc1ccccc1)=N/O [Compound 2, (2E,2′E)-N,N′-(diselenediylbis(ethane-2,1-diyl))bis(2-(hydroxyimino)-3-phenylpropanamide)]
IC50 [1]: 80 nM
IC50 [2]: 120 nM
IC50 [3]: 90 nM
degree of metastasis to each organ (lungs, liver, spleen, kidneys) (breast cancer metastasis): significantly reduced
degree of metastasis to the lungs (breast cancer metastasis): greatly reduced
protein expression of E-cadherin [4]: increased
protein expression of N-cadherin [4]: suppressed
protein expression of ZEB1 [4]: suppressed
protein expression of vimentin [4]: suppressed
inhibitory effect on H3K79 methylation (DOT1L): excellent
tumor weight (breast tumors; 38 days after administration began, compared to control, psammaplin A and paclitaxel groups): remarkably reduced
tumor volume (breast tumors; intraperitoneally three times a week, compared to the control): remarkably reduced
body weights of the mice (breast tumors; measured during the xenograft experiment): not affected
